Results: the NIST ThermoML archive (doi:10.1021/je900596d)

Settings: for mass density: Vibrating tube method

FC(F)=C(F)C(F)(F)F [hexafluoropropene]
Settings	mass density [kg/m3]	vapor or sublimation pressure [kPa]
348.16 K, 3450.8 kPa, Liquid	1027.09	–
348.16 K, 3473.5 kPa, Liquid	1028.21	–
348.16 K, 3495.4 kPa, Liquid	1029.31	–
348.16 K, 3556 kPa, Liquid	1032.19	–
348.16 K, 3620.1 kPa, Liquid	1035.16	–
348.16 K, 3683.5 kPa, Liquid	1037.98	–
348.16 K, 3748.1 kPa, Liquid	1040.81	–
348.16 K, 3811.8 kPa, Liquid	1043.57	–
348.16 K, 3875.5 kPa, Liquid	1046.1	–
348.16 K, 4030.8 kPa, Liquid	1052.17	–
348.16 K, 4092 kPa, Liquid	1054.62	–
348.16 K, 4154 kPa, Liquid	1057.08	–
348.16 K, 4217.2 kPa, Liquid	1059.37	–
348.16 K, 4278.7 kPa, Liquid	1061.59	–
348.16 K, 4339.9 kPa, Liquid	1063.83	–
348.16 K, 4402.1 kPa, Liquid	1065.77	–
348.16 K, 4464.2 kPa, Liquid	1067.89	–
348.16 K, 4526 kPa, Liquid	1070.05	–
348.16 K, 4587.8 kPa, Liquid	1072.01	–
348.16 K, 4650.2 kPa, Liquid	1074.03	–
348.16 K, 4713.9 kPa, Liquid	1075.88	–
348.16 K, 4776 kPa, Liquid	1077.88	–
348.16 K, 4837.4 kPa, Liquid	1079.66	–
348.16 K, 4898.5 kPa, Liquid	1081.71	–
348.16 K, 4959.8 kPa, Liquid	1083.32	–
348.16 K, 5022.6 kPa, Liquid	1085.31	–
348.16 K, 5083.3 kPa, Liquid	1086.88	–
348.16 K, 5144.8 kPa, Liquid	1088.55	–
348.16 K, 5206 kPa, Liquid	1090.21	–
348.16 K, 5267.2 kPa, Liquid	1091.82	–
348.16 K, 5329.1 kPa, Liquid	1093.58	–
348.16 K, 5389.3 kPa, Liquid	1095.16	–
348.16 K, 5451.8 kPa, Liquid	1096.85	–
348.16 K, 5513.3 kPa, Liquid	1098.5	–
348.16 K, 5576.7 kPa, Liquid	1100.15	–
348.16 K, 5638.9 kPa, Liquid	1101.65	–
348.16 K, 5701.8 kPa, Liquid	1103.22	–
348.16 K, 5762.2 kPa, Liquid	1104.69	–
348.16 K, 5825.1 kPa, Liquid	1106.21	–
348.16 K, 5886.9 kPa, Liquid	1107.77	–
348.16 K, 5948.2 kPa, Liquid	1109.1	–
348.16 K, 6012.5 kPa, Liquid	1110.68	–
348.16 K, 6074.1 kPa, Liquid	1112.14	–
348.16 K, 6135.8 kPa, Liquid	1113.56	–
348.16 K, 6199.8 kPa, Liquid	1114.99	–
348.16 K, 6262.2 kPa, Liquid	1116.4	–
348.16 K, 6326.8 kPa, Liquid	1117.78	–
348.16 K, 6392.4 kPa, Liquid	1119.12	–
348.16 K, 6456 kPa, Liquid	1120.57	–
348.16 K, 6517.7 kPa, Liquid	1121.84	–
348.16 K, 6581 kPa, Liquid	1123.2	–
348.16 K, 6643.4 kPa, Liquid	1124.53	–
348.16 K, 6706.3 kPa, Liquid	1125.82	–
348.16 K, 6767.7 kPa, Liquid	1127.07	–
348.16 K, 6830.9 kPa, Liquid	1128.32	–
348.16 K, 6893 kPa, Liquid	1129.63	–
348.16 K, 6955.9 kPa, Liquid	1130.87	–
348.16 K, 7017.5 kPa, Liquid	1132.05	–
348.16 K, 7142.8 kPa, Liquid	1134.61	–
348.16 K, 7205.4 kPa, Liquid	1135.79	–
348.16 K, 7269.5 kPa, Liquid	1136.95	–
348.16 K, 7332.4 kPa, Liquid	1138.09	–
348.16 K, 7396.2 kPa, Liquid	1139.31	–
348.16 K, 7458.5 kPa, Liquid	1140.53	–
348.16 K, 7521.9 kPa, Liquid	1141.64	–
348.16 K, 7584.8 kPa, Liquid	1142.73	–
348.16 K, 7646.8 kPa, Liquid	1143.93	–
348.16 K, 7707.9 kPa, Liquid	1145.12	–
348.16 K, 7771.4 kPa, Liquid	1146.25	–
348.16 K, 7835.4 kPa, Liquid	1147.35	–
348.16 K, 7897.7 kPa, Liquid	1148.36	–
348.16 K, 7961.9 kPa, Liquid	1149.49	–
348.16 K, 8025.7 kPa, Liquid	1150.51	–
348.16 K, 8087.3 kPa, Liquid	1151.69	–
348.16 K, 8149.7 kPa, Liquid	1152.67	–
348.16 K, 8214.5 kPa, Liquid	1153.77	–
348.16 K, 8278.5 kPa, Liquid	1154.85	–
348.16 K, 8341.3 kPa, Liquid	1155.78	–
348.16 K, 8406.3 kPa, Liquid	1157	–
348.16 K, 8469.9 kPa, Liquid	1157.97	–
348.16 K, 8531.4 kPa, Liquid	1158.94	–
348.16 K, 8594.4 kPa, Liquid	1159.97	–
348.16 K, 8659.7 kPa, Liquid	1160.84	–
348.16 K, 8722.7 kPa, Liquid	1161.97	–
348.16 K, 8786.5 kPa, Liquid	1163	–
348.16 K, 8848.4 kPa, Liquid	1163.83	–
348.16 K, 8911.7 kPa, Liquid	1164.85	–
348.16 K, 8974.2 kPa, Liquid	1165.76	–
348.16 K, 9039.8 kPa, Liquid	1166.77	–
348.16 K, 9105.6 kPa, Liquid	1167.83	–
348.16 K, 9170.3 kPa, Liquid	1168.8	–
348.16 K, 9233.7 kPa, Liquid	1169.7	–
348.16 K, 9295.2 kPa, Liquid	1170.74	–
348.16 K, 9362.9 kPa, Liquid	1171.78	–
348.16 K, 9399.4 kPa, Liquid	1172.31	–
348.16 K, 9466.9 kPa, Liquid	1173.32	–
348.16 K, 9534.3 kPa, Liquid	1174.34	–
348.16 K, 9571.4 kPa, Liquid	1174.89	–
348.16 K, 9609.6 kPa, Liquid	1175.39	–
348.16 K, 9656.8 kPa, Liquid	1176.01	–
348.16 K, 9696 kPa, Liquid	1176.45	–
348.16 K, 9739.9 kPa, Liquid	1177.06	–
348.16 K, 9788.9 kPa, Liquid	1175.42	–
348.16 K, 9833.1 kPa, Liquid	1175.9	–
348.16 K, 9877.8 kPa, Liquid	1176.32	–
348.16 K, 9944.3 kPa, Liquid	1179.73	–
348.16 K, 10016 kPa, Liquid	1180.6	–
348.22 K, Liquid, Closed cell (Static) method	–	2500.5
353.12 K, 6.6 kPa, Fluid (supercritical or subcritical phases)	0.343	–
353.12 K, 8.7 kPa, Fluid (supercritical or subcritical phases)	0.497	–
353.12 K, 11.7 kPa, Fluid (supercritical or subcritical phases)	0.619	–
353.12 K, 14.3 kPa, Fluid (supercritical or subcritical phases)	0.737	–
353.12 K, 16.6 kPa, Fluid (supercritical or subcritical phases)	0.793	–
353.12 K, 24.1 kPa, Fluid (supercritical or subcritical phases)	1.232	–
353.12 K, 26.7 kPa, Fluid (supercritical or subcritical phases)	1.395	–
353.12 K, 28.8 kPa, Fluid (supercritical or subcritical phases)	1.442	–
353.12 K, 32.7 kPa, Fluid (supercritical or subcritical phases)	1.694	–
353.12 K, 35.6 kPa, Fluid (supercritical or subcritical phases)	1.827	–
353.12 K, 38.2 kPa, Fluid (supercritical or subcritical phases)	1.904	–
353.12 K, 101.9 kPa, Fluid (supercritical or subcritical phases)	5.291	–
353.12 K, 111.4 kPa, Fluid (supercritical or subcritical phases)	5.735	–
353.12 K, 120.9 kPa, Fluid (supercritical or subcritical phases)	6.245	–
353.12 K, 129.7 kPa, Fluid (supercritical or subcritical phases)	6.695	–
353.12 K, 140.7 kPa, Fluid (supercritical or subcritical phases)	7.318	–
353.12 K, 151.2 kPa, Fluid (supercritical or subcritical phases)	7.845	–
353.12 K, 160.5 kPa, Fluid (supercritical or subcritical phases)	8.339	–
353.12 K, 169.9 kPa, Fluid (supercritical or subcritical phases)	8.914	–
353.12 K, 180.3 kPa, Fluid (supercritical or subcritical phases)	9.389	–
353.12 K, 189.6 kPa, Fluid (supercritical or subcritical phases)	9.904	–
353.12 K, 199 kPa, Fluid (supercritical or subcritical phases)	10.374	–
353.12 K, 209.3 kPa, Fluid (supercritical or subcritical phases)	11.01	–
353.12 K, 220.4 kPa, Fluid (supercritical or subcritical phases)	11.538	–
353.12 K, 230.8 kPa, Fluid (supercritical or subcritical phases)	12.133	–
353.12 K, 242.1 kPa, Fluid (supercritical or subcritical phases)	12.723	–
